Data reported in patent US20230212164A1, “ANNULATED 2-AMINO-3-CYANO THIOPHENES AND DERIVATIVES FOR THE TREATMENT OF CANCER” (BOEHRINGER INGELHEIM INTERNATIONAL GMBH, priority 2020, published 2023).

Experiments:
[1] = tested on: pERK (Thr202/Tyr204) in NCI-H358 (KRAS G12C mutation); experiment: ERK phosphorylation assay 1 (AlphaLISA SureFire Ultra p-ERK1/2); settings: Homo sapiens, NCI-H358, read-out: IC50 H358 pERK
Experimental: ERK Phosphorylation Assay
Materials Used for the Assay:
AlphaLISA SureFire Ultra p-ERK1/2 (Thr202/Tyr204) Assay Kit (ALSU-PERK-A500)
The cells are incubated for 1 h at room temperature and then incubated overnight in an incubator at 37° C. and 5% CO2 in a humidified atmosphere. 60 nL compound solution (10 mM DMSO stock solution) is then added using a Labcyte Echo 550 device. […] After 20 minutes of incubation at room temperature with shaking, 6 μL of each lysate sample is transferred to a 384-well Proxiplate and analyzed for pERK (Thr202/Tyr204) with the AlphaLISA SureFire Ultra pERK1/2 (Thr202/Tyr204) Assay Kit. 3 μL Acceptor Mix and 3 μL Donor Mix are added under subdued light and incubated for 2 h at room temperature in the dark, before the signal is measured on a PerkinElmer Envision HTS Multilabel Reader. The raw data were imported into and analyzed with the Boehringer Ingelheim proprietary software MegaLab (curve fitting based on the program PRISM, GraphPad Inc.).

[2] = target: T1, protein-protein interaction between SOS1 and KRAS G12C (Homo sapiens, UniProt P01116, C118S/C51S/C80L/G12C); experiment: KRAS::SOS1 AlphaScreen binding assay
T1 construct: His6 (N)
Experimental: KRAS::SOS1 AlphaScreen Binding Assay
Assay buffer: • 1×PBS • 0.1% BSA • 0.05% Tween 20
AlphaLISA Glutathione Acceptor Beads and AlphaScreen Streptavidin Donor Beads are mixed in assay buffer at a concentration of 10 μg/mL (final assay concentration) each prior to use and kept at room temperature.
Compounds are diluted to a final start concentration of 100 μM and are tested in duplicate. […] For compound a start concentration of 100 μM, 150 nL of compound solution is transferred per well in 11 concentrations in duplicate with serial 1:5 dilutions.
The assay is run using a fully automated robotic system in a darkened room below 100 Lux. 10 μL of KRAS::SOS1 GDP mix is added into columns 1-24 to the 150 nL of compound solution (final dilution in the assay 1:100, final DMSO concentration 1%).
After 30 minutes incubation time 5 μL of bead mix is added into columns 1-23. Plates are kept at room temperature in a darkened incubator. After further 60 minutes incubation, the signal is measured using a PerkinElmer Envision HTS Multilabel Reader using the AlphaScreen specifications from PerkinElmer. Each plate contains the following controls: • diluted DMSO+KRAS::SOS1 GDP mix+bead mix • diluted DMSO+KRAS::SOS1 GDP mix
IC50 values are calculated and analyzed using a 4 parametric logistic model.

T1 sequence (P01116 1-169 isoform P01116-2 G12C/C51S/C80L/C118S): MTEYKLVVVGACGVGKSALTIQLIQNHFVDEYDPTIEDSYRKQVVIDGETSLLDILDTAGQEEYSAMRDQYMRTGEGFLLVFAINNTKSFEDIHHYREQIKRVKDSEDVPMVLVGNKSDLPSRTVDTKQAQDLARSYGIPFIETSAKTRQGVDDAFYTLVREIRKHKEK

Row | Structure (SMILES) | IC50 [1] | IC50 ([2]; Table 36) | IC50 ([2]; Table 35) | IC50 ([2]; Table 38)
1 | C=CC(=O)N1CC2(CCN(c3cc(-c4noc(C5(C)CCCc6sc(N)c(C#N)c65)n4)nc(N4CCN(C)CC4)c3)C2)C1 (centres unmarked) [Ia-143] | 1330 nM | 340 nM |  | 
2 | C=CC(=O)N1CCN(c2cc(-c3noc(C4(C)CCCc5sc(N)c(C#N)c54)n3)nc(N3CCN(C(C)(C)C)CC3)c2)CC1 (centres unmarked) [Ia-31] |  | 83 nM |  | 
3 | C=CC(=O)N1CC(CN(C)c2cc(-c3noc([C@@]4(C)CCCc5sc(N)c(C#N)c54)n3)nc(N3CCCN(C)C[C@@H]3C)n2)C1 [Ia-93] |  | 381 nM |  | 
4 | C=CC(=O)N1CCN(c2cc(-c3noc([C@@]4(C)CC[C@H](C)c5sc(N)c(C#N)c54)n3)nc(N3CCN(C4CCCC4)CC3)c2)CC1 [Ia-11] | 12.3 nM | 125 nM |  | 
5 | C=CC(=O)N1CCN(c2cc(-c3noc(C4(C)CCC(C)c5sc(N)c(C#N)c54)n3)nc(N3CCN(C4CCCC4)CC3)c2)CC1 (centres unmarked) [Ia-10] | 38.5 nM | 254 nM |  | 
6 | C=CC(=O)N1CCC(Oc2cc(-c3noc(C4(C)CCCc5sc(N)c(C#N)c54)n3)nc(N3CCN(C4CCCC4)CC3)c2)CC1 (centres unmarked) [Ia-111] | 92.5 nM | 418 nM |  | 
7 | C=CC(=O)N1CCN(c2cc(-c3noc(C4(C)CC(F)(F)Cc5sc(N)c(C#N)c54)n3)nc(N3CCN(C)CC3)c2)CC1 (centres unmarked) [Ia-113] | 376 nM | 730 nM |  | 
8 | C=CC(=O)N1CCN(c2cc(-c3noc(C4(C)CCC(C)c5sc(N)c(C#N)c54)n3)nc(N3CCN(C)CC3)c2)CC1C (centres unmarked) [Ia-104] | 71.8 nM | 635 nM |  | 
9 | C=CC(=O)N1CCC(c2cc(-c3noc(C4(C)CCCc5sc(N)c(C#N)c54)n3)nc(N3CCN(C4CCCC4)CC3)c2)CC1 (centres unmarked) [Ia-2] | 131 nM |  | 336 nM | 
10 | C=CC(=O)N1CCN(c2cc(-c3noc(C4(C)CCCc5sc(N)c(C#N)c54)n3)nc(N3CCN(C)CC3)c2)CC1 (centres unmarked) [Ia-87] | 10 nM | 51 nM |  | 
11 | C=CC(=O)N1CCN(c2cc(-c3ccncc3)nc(-c3noc(C4(C)CCCc5sc(N)c(C#N)c54)n3)c2)CC1 (centres unmarked) [Ia-33] | 50.4 nM | 442 nM |  | 
12 | C=CC(=O)N1CCN(c2cc(-c3noc(C4(C)CCCc5sc(N)c(C#N)c54)n3)nc(N3CCN4CCC[C@@H]4C3)c2)CC1 (some centres unmarked) [Ia-153] | 11.6 nM | 31 nM |  | 
13 | C=CC(=O)N1CCN(c2cc(OCCN(C)C)nc(-c3noc(C4(C)CCCc5sc(N)c(C#N)c54)n3)c2)CC1 (centres unmarked) [Ia-89] |  | 48 nM |  | 
14 | C=CC(=O)N1CCC(Oc2cc(-c3noc(C4(C)CCCc5sc(N)c(C#N)c54)n3)nc(N3CCN(C)CC3)c2)CC1 (centres unmarked) [Ia-141] | 39.6 nM | 71 nM |  | 
15 | C=CC(=O)N1CCCN(c2cc(-c3noc([C@@]4(C)CCCc5sc(N)c(C#N)c54)n3)nc(N3CCCN(CCCOC)C[C@@H]3C)n2)CC1 [Ia-45] |  | 6 nM |  | 
16 | C=CC(=O)N1CCN(c2cc(-c3noc(C4(C)CCCc5sc(N)c(C#N)c54)n3)nc(N3CCC(N4CC[C@H](F)C4)CC3)c2)CC1 (some centres unmarked) [Ia-40] | 5.3 nM | 19 nM |  | 
17 | C=CC(=O)N1[C@H](C)CN(c2cc(-c3noc(C4(C)CCCc5sc(N)c(C#N)c54)n3)nc(N3CCN(C4CCCC4)CC3)c2)C[C@@H]1C (some centres unmarked) [Ia-8] | 544 nM | 1000 nM |  | 
18 | C=CC(=O)N1CCC(Oc2cc(O[C@@H](C)[C@@H]3CCCN3C)nc(-c3noc([C@]4(C)CCCc5sc(N)c(C#N)c54)n3)c2)CC1 [Ia-5] |  | 622 nM |  | 
19 | C=CC(=O)NCC1CN(c2cc(-c3noc(C4(C)CCCc5sc(N)c(C#N)c54)n3)nc(N3CCN(C)CC3)c2)C1 (centres unmarked) [Ia-109] | 5990 nM | 943 nM |  | 
20 | C=CC(=O)N1CCN(c2cc(-c3noc([C@]4(C)CCCc5sc(N)c(C#N)c54)n3)nc(N3CCN(C)C[C@@H]3C)c2)CC1 [Ia-13] | 7.3 nM |  |  | 
21 | C=CC(=O)N1CCN(c2cc(-c3noc(C4(C)CCCc5sc(N)c(C#N)c54)n3)nc(N3C[C@@H](C)N(CC)[C@@H](C)C3)c2)CC1 (some centres unmarked) [Ia-21] | 7.4 nM | 51 nM |  | 

Row | Structure (SMILES) | IC50 [1] | IC50 ([2]; Table 36) | IC50 ([2]; Table 35) | IC50 ([2]; Table 38)
22 | C=CC(=O)N1CCN(c2cc(-c3noc(C4(C)CCCc5sc(N)c(C#N)c54)n3)nc(N3CCN4CCCCC4C3)c2)CC1 (centres unmarked) [Ia-149] | 8.6 nM | 47 nM |  | 
23 | C=CC(=O)N1CCN(c2cc(-c3noc(C4(C)CCCc5sc(N)c(C#N)c54)n3)cc(N3CCC(N4CCOCC4)CC3)c2)CC1 (centres unmarked) [Ia-32] | 35.6 nM | 255 nM |  | 
24 | C=CC(=O)N1CCN(c2cc(OCCCN(C)C)cc(-c3noc(C4(C)CCCc5sc(N)c(C#N)c54)n3)c2)CC1 (centres unmarked) [Ia-142] | 36.4 nM | 176 nM |  | 
25 | C=CC(=O)N1CCN(c2cc(-c3noc(C4(C)CCCc5sc(N)c(C#N)c54)n3)nc(N3CCN(C4CCCC4)CC3)c2)CC1 (centres unmarked) [Ia-122] | 19.3 nM | 71 nM |  | 
26 | C=CC(=O)N1CCN(c2cc(-c3noc(C4(C)CCCc5sc(N)c(C#N)c54)n3)nc(N3CCN(C)CC34CC4)c2)CC1 (centres unmarked) [Ia-25] | 112 nM | 186 nM |  | 
27 | C=CC(=O)N1CCC(Oc2cc(-c3noc([C@@]4(C)CCCc5sc(N)c(C#N)c54)n3)nc(N3CCN(C)CC3)c2)CC1 [Ia-91] | 11.6 nM | 49 nM |  | 
28 | C=CC(=O)N1CCN(c2cc(-c3noc([C@@]4(C)CCCc5sc(N)c(C#N)c54)n3)nc(N3CCN(CC)CC3)c2)CC1 [Ia-126] | 4.2 nM | 30 nM |  | 
29 | C=CC(=O)N1CCN(c2cc(-c3noc(C4(C)CCCc5sc(N)c(C#N)c54)n3)nc(N3C[C@@H]4C[C@H]3CN4C3CCCC3)c2)CC1 (some centres unmarked) [Ia-115] | 8.8 nM | 63 nM |  | 
30 | C=CC(=O)N1CCN(c2cc(OCCN3CCCC3)cc(-c3noc(C4(C)CCCc5sc(N)c(C#N)c54)n3)c2)CC1 (centres unmarked) [Ia-144] | 68.7 nM | 647 nM |  | 
31 | C=CC(=O)N1CCC(Oc2cc(-c3noc(C4(C)CCC(C)c5sc(N)c(C#N)c54)n3)nc(N3CCN(C)CC3)c2)CC1 (centres unmarked) [Ia-120] | 111 nM | 405 nM |  | 
32 | C=CC(=O)N1CCN(c2cc(-c3noc(C4(C)CCCc5sc(N)c(C#N)c54)n3)nc(N3CC[C@H](N4CCCC4)C3)c2)CC1 (some centres unmarked) [Ia-20] | 20.7 nM | 130 nM |  | 
33 | C=CC(=O)N1CCN(c2cc(-c3noc(C4(C)CCCc5sc(N)c(C#N)c54)n3)nc(N3CCN(C(C)C)C(C)C3)c2)CC1 (centres unmarked) [Ia-150] | 9.5 nM | 71 nM |  | 
34 | C=CC(=O)N1CCN(c2cc(OCCN(C)C)cc(-c3noc(C4(C)CCCc5sc(N)c(C#N)c54)n3)c2)CC1 (centres unmarked) [Ia-90] |  | 250 nM |  | 
35 | C=CC(=O)N1CCC2C1CCN2c1cc(-c2noc([C@@]3(C)CCCc4sc(N)c(C#N)c43)n2)nc(N2CCCN(C)C[C@@H]2C)n1 (some centres unmarked) [Ia-103] |  | 143 nM |  | 
36 | C=CC(=O)N1CCN(c2cc(-c3noc(C4(C)CCCc5sc(N)c(C#N)c54)n3)nc(N3CCN(C4CCCC4)CC3)c2)CC1 (centres unmarked) [Ia-147] |  | 71 nM |  | 
37 | CC#CC(=O)N1CCN(c2cc(-c3noc(C4(C)CCCc5sc(N)c(C#N)c54)n3)nc(N3CCN(C)CC3)c2)CC1 (centres unmarked) [Ia-168] |  |  |  | 1020 nM
38 | C=CC(=O)N1CCN(c2cc(-c3noc([C@@]4(C)CCCc5sc(N)c(C#N)c54)n3)nc(N3CCN(C)C[C@@H]3C)c2)CC1 [Ia-14] | 2.7 nM |  |  | 
39 | C=CC(=O)N1CC2=C(C1)CN(c1cc(-c3noc([C@@]4(C)CCCc5sc(N)c(C#N)c54)n3)nc(N3CCCN(C)C[C@@H]3C)n1)C2 [Ia-102] |  | 117 nM |  | 
40 | C=CC(=O)N1CCC2(CCN(c3cc(-c4noc([C@@]5(C)CCCc6sc(N)c(C#N)c65)n4)nc(N4CCCN(C)C[C@@H]4C)n3)C2)C1 (some centres unmarked) [Ia-96] |  | 799 nM |  | 
41 | C=CC(=O)N1CCN(c2cc(-c3noc([C@@]4(C)CCCc5sc(N)c(C#N)c54)n3)nc(N3CCN(C)C[C@H]3C)c2)CC1 [Ia-119] | 24.2 nM |  |  | 
